The subject of the assay is CD2F1 mice, ip Colon 26 adenocarcinoma, median survival T/C. The assay can be described thus: NCI In Vivo Anticancer Drug Screen. Data for tumor model Colon 26 Adenocarcinoma (intraperitoneal) in CD2F1 (CDF1) mice. The note with it: endpoint: median survival time, higher = longer survival. As for the experimental part:
The antitumor activity of compounds was measured in mice bearing transplantable tumors. Survival or tumor size were measured and the results are expressed as the measurement made in the treated group (T) divided by the measurement made in the vehicle treated control group (C). The tumor model used in this assay is Colon 26 Adenocarcinoma (intraperitoneal) in CD2F1 (CDF1) mice

Where [1] appears, read: dose: 6.25 mg/kg/injection, schedule: Q04DX003 (ip), vehicle: saline.
Where [2] appears, read: dose: 25.0 mg/kg/injection, schedule: Q04DX003 (ip), vehicle: saline.
Setting [3] is: dose: 2.16 mg/kg/injection, schedule: Q04DX003 (ip), vehicle: water.

SMILES strings stand for the structures. “And” between values parts separate entries of the source, which are not always exact repeats. Equal values may be shown once. Inconclusive results and toxic doses are left out.

As to `CC[N+](CC)(CC)CC`, the T/C (dose: 1.56 mg/kg/injection, schedule: Q04DX003 (ip), vehicle: saline with Tween-80) is 114 % of control; the T/C (dose: 3.12 mg/kg/injection, schedule: Q04DX003 (ip), vehicle: saline with Tween-80) was 107 % of control and 113 % of control; the T/C (dose: 6.25 mg/kg/injection, schedule: Q04DX003 (ip), vehicle: saline with Tween-80) is 111 % of control; the T/C (dose: 12.5 mg/kg/injection, schedule: Q04DX003 (ip), vehicle: saline with Tween-80) was 175 % of control; the T/C (dose: 12.5 mg/kg/injection, schedule: Q04DX003 (oral), vehicle: saline with Tween-80) is 109 % of control; the T/C (dose: 25.0 mg/kg/injection, schedule: Q04DX003 (oral), vehicle: saline with Tween-80) was 105 % of control. Besides, the T/C (dose: 50.0 mg/kg/injection, schedule: Q04DX003 (oral), vehicle: saline with Tween-80) is 104 % of control and the T/C (dose: 100.0 mg/kg/injection, schedule: Q04DX003 (oral), vehicle: saline with Tween-80) was 94 % of control.

Turning to `CC(=O)[C@]1(O)Cc2c(O)c3c(c(O)c2[C@@H](OC2CC(N)C(O)C(C)O2)C1)C(=O)c1c(O)cccc1C3=O` (stereo not given in full), the T/C runs as follows: (dose: 0.7 mg/kg/injection, schedule: Q07DX003 (iv), vehicle: water) 106 % of control; (dose: 1.1 mg/kg/injection, schedule: Q07DX003 (iv), vehicle: water) 124 % of control; (dose: 1.8 mg/kg/injection, schedule: Q07DX002 (iv), vehicle: water) 157 % of control; (dose: 1.8 mg/kg/injection, schedule: Q07DX003 (iv), vehicle: water) 157 % of control; (dose: 2.8 mg/kg/injection, schedule: Q07DX002 (iv), vehicle: water) 183 % of control; (dose: 2.8 mg/kg/injection, schedule: Q07DX003 (iv), vehicle: water) 187 % of control. Further, the T/C is 104 % of control (dose: 4.2 mg/kg/injection, schedule: Q07DX002 (iv), vehicle: water) and 92 % of control (dose: 600.0 micrograms/kg/injection, schedule: Q04DX003 (ip), vehicle: water).

Consider `CC[C@H](CC[C@@H](C)[C@H]1CC[C@H]2[C@@H]3CC=C4C[C@@H](OC(C)=O)CC[C@]4(C)[C@H]3CC[C@]12C)C(C)C`, for which the T/C is 88 % of control (dose: 25.0 mg/kg/injection, schedule: Q04DX002 (ip), vehicle: Klucel (hydroxypropylcellulose) (HPC)); 92 % of control (dose: 50.0 mg/kg/injection, schedule: Q04DX002 (ip), vehicle: Klucel (hydroxypropylcellulose) (HPC)); 102 % of control (dose: 100.0 mg/kg/injection, schedule: Q04DX002 (ip), vehicle: Klucel (hydroxypropylcellulose) (HPC)); 90 % of control (dose: 200.0 mg/kg/injection, schedule: Q04DX002 (ip), vehicle: Klucel (hydroxypropylcellulose) (HPC)); 97 % of control (dose: 400.0 mg/kg/injection, schedule: Q04DX002 (ip), vehicle: Klucel (hydroxypropylcellulose) (HPC)).

On to `N=[N+]=CC(=O)OCC(N)C(=O)O` (stereo not given), for which the T/C (dose: 3.12 mg/kg/injection, schedule: Q04DX003 (ip), vehicle: water) was 113 % of control; the T/C (dose: 6.25 mg/kg/injection, schedule: Q04DX003 (ip), vehicle: water) was 113 % of control; the T/C (dose: 12.5 mg/kg/injection, schedule: Q04DX003 (ip), vehicle: water) was 105 % of control; the T/C (dose: 25.0 mg/kg/injection, schedule: Q04DX003 (ip), vehicle: water) was 111 % of control; the T/C (dose: 50.0 mg/kg/injection, schedule: Q04DX003 (ip), vehicle: water) is 95 % of control.

Take `C1OC1CN1CCN(CC2CO2)CC1` (stereo not given): the T/C runs as follows: (dose: 3.12 mg/kg/injection, schedule: Q04DX003 (ip), vehicle: saline) 112 % of control and 98 % of control; under setting [1], 108 % of control and 120 % of control; under setting [2], 167 % of control; (dose: 50.0 mg/kg/injection, schedule: Q04DX003 (ip), vehicle: saline) 175 % of control and 193 % of control.

With `COc1cccc2c1C(=O)c1c(O)c3c(c(O)c1C2=O)C[C@@](O)(C(=O)CO)C[C@@H]3OC1CC(N(C)C)C(O)C(C)O1` (stereo not given in full), the T/C is 103 % of control under setting [3]; 107 % of control (dose: 5.6 mg/kg/injection, schedule: Q07DX003 (iv), vehicle: water); 101 % of control (dose: 9.0 mg/kg/injection, schedule: Q07DX003 (iv), vehicle: water); 92 % of control (dose: 14.0 mg/kg/injection, schedule: Q07DX003 (iv), vehicle: water).

For the molecule `CC1=CCCC(C)(O)C2CC(CCC3(C)OC3CC1)C(C)C(=O)O2` (stereo not given), the T/C reads like this: (dose: 22.5 mg/kg/injection, schedule: Q04DX002 (ip), vehicle: Klucel (hydroxypropylcellulose) (HPC)) 98 % of control; (dose: 45.0 mg/kg/injection, schedule: Q04DX002 (ip), vehicle: Klucel (hydroxypropylcellulose) (HPC)) 100 % of control; (dose: 90.0 mg/kg/injection, schedule: Q04DX002 (ip), vehicle: Klucel (hydroxypropylcellulose) (HPC)) 100 % of control; (dose: 180.0 mg/kg/injection, schedule: Q04DX002 (ip), vehicle: Klucel (hydroxypropylcellulose) (HPC)) 102 % of control.

For `CN(C)CCNc1ccc(O)c2c1C(=O)c1ccccc1C2=O`, the T/C (dose: 10.0 mg/kg/injection, schedule: Q01DX009 (ip), vehicle: acid diluted with saline) was 121 % of control; the T/C (dose: 20.0 mg/kg/injection, schedule: Q01DX009 (ip), vehicle: acid diluted with saline) is 104 % of control and 115 % of control; the T/C (dose: 40.0 mg/kg/injection, schedule: Q01DX009 (ip), vehicle: acid diluted with saline) was 103 % of control; the T/C (dose: 80.0 mg/kg/injection, schedule: Q01DX009 (ip), vehicle: acid diluted with saline) was 115 % of control and 120 % of control.

Regarding `O=P1(N(CCCl)CCCl)NCCCO1` (stereo not given), the T/C was 106 % of control (dose: 50.0 mg/kg/injection, schedule: Q03DX002 (ip), vehicle: saline); 119 % of control (dose: 51.0 mg/kg/injection, schedule: Q07DX003 (ip), vehicle: saline); 117 % of control (dose: 100.0 mg/kg/injection, schedule: Q03DX002 (ip), vehicle: saline); 154 % of control (dose: 105.0 mg/kg/injection, schedule: Q07DX003 (ip), vehicle: saline); 165 % of control (dose: 150.0 mg/kg/injection, schedule: Q07DX003 (ip), vehicle: saline).

For `CC[C@](O)(C(=O)O)c1cc2n(c(=O)c1CO)Cc1cc3ccccc3nc1-2`, the T/C is 114 % of control under setting [1]; 111 % of control (dose: 12.5 mg/kg/injection, schedule: Q04DX003 (ip), vehicle: saline); 121 % of control under setting [2].

Consider `COc1cccc2c1C(=O)c1c(O)c3c(c(O)c1C2=O)C[C@@](O)(C(C)=O)C[C@@H]3OC1CC(N)C(O)C(C)O1` (stereo not given in full), for which the T/C (dose: 1.8 mg/kg/injection, schedule: Q04DX003 (ip), vehicle: water) is 114 % of control; the T/C (dose: 2.0 mg/kg/injection, schedule: Q04DX003 (ip), vehicle: saline) was 158 % of control; the T/C (dose: 2.0 mg/kg/injection, schedule: Q07DX002 (iv), vehicle: saline) was 113 % of control; the T/C under setting [3] was 119 % of control; the T/C (dose: 3.4 mg/kg/injection, schedule: Q07DX002 (iv), vehicle: saline) was 106 % of control; the T/C (dose: 3.6 mg/kg/injection, schedule: Q04DX003 (ip), vehicle: water) was 103 % of control. Besides, the T/C by setting is: (dose: 4.0 mg/kg/injection, schedule: Q04DX003 (ip), vehicle: saline) 115 % of control; (dose: 5.7 mg/kg/injection, schedule: Q07DX002 (iv), vehicle: saline) 104 % of control; (dose: 9.5 mg/kg/injection, schedule: Q07DX002 (iv), vehicle: saline) 115 % of control.

For the molecule `CN(C)CCCNc1c2ccccc2nc2cccc([N+](=O)[O-])c12`, the T/C (dose: 0.02 mg/kg/injection, schedule: Q07DX002 (iv), vehicle: saline with Tween-80) is 105 % of control; the T/C (dose: 0.04 mg/kg/injection, schedule: Q07DX002 (iv), vehicle: saline with Tween-80) is 107 % of control; the T/C (dose: 0.07 mg/kg/injection, schedule: Q07DX002 (iv), vehicle: saline with Tween-80) is 108 % of control; the T/C (dose: 0.12 mg/kg/injection, schedule: Q07DX002 (iv), vehicle: saline with Tween-80) was 106 % of control; the T/C (dose: 0.3 mg/kg/injection, schedule: Q07DX002 (iv), vehicle: saline with Tween-80) was 101 % of control; the T/C (dose: 0.46 mg/kg/injection, schedule: Q07DX002 (iv), vehicle: saline with Tween-80) is 100 % of control.

The values are drawn from PubChem BioAssay AID210 (DTP/NCI, 2004).
